Measured values published in patent publication US20080317883A1, “METHODS FOR TREATING DEPRESSION” (priority 2006, published 2008).
Read-outs that look alike come from different tables or passages of the source.

What was measured:
dominant rats [1] = conditions: administered to dominant rats, literature; cited from earlier work
submissive rats [2] = conditions: literature, cited from earlier work
submissive rats [3] = experiment: Reduction of Submissive Behavior Model (RSBM) of depression, dominant-submissive rat food competition test; type: in vivo, Sprague-Dawley rats
From the text: (§1) In this study, the effects of COMPOUND #7 on dominant or submissive behavior in pairs of rats competing for food are examined. It has been shown that anti-manic drugs, including anticonvulsants, decrease dominance and antidepressant drugs reduce submissiveness. This model uses dominant behavior as a model of mania and submissive behavior as a model of depression. The dominance and submissiveness is defined in a competition test and measured as the relative success of two food-restricted rats to gain access to a feeder. Rats are randomly paired and placed in an apparatus allowing them to compete for a food reward. The dominant-submissive relationship develops over a 2-week period. The submissive or dominant animals in pairs selected after 2 weeks of training were treated orally […] (b.i.d.) with COMPOUND #7 at 3 or 30 mg/kg for 5 weeks. The partner of the drug-treated animal was treated with vehicle.
(§2) The objective of this study was to determine if COMPOUND #7 active in the Reduction of Submissive Behavior Model (RSBM) of depression and the Reduction of Dominant Behavior Model (RDBM) of mania. Measurements were made at two doses (3 and 30 mg/kg) after oral twice a day (b.i.d.) administration. The effect of the drug in the RSBM was compared to the effect of fluoxetine (10 mg/kg) and vehicle (0.5% methylcellulose). The effect of the drug in the RDBM was compared with the effect of lithium (100 mg/kg) and vehicle (0.5% methylcellulose). The endpoints measured were the development of a significant reduction of submissive or dominant behavior and its time of onset.
The DSR developed by two rats competing for food uses the apparatus in FIG. 1. The methodology and equipment are described in several publications; (See: Malatynska E, Goldenberg R, Shuck L, Haque A, Zamecki P, Crites G, Schindler N, Knapp R J. Reduction of submissive behavior in rats: a test for antidepressant drug activity. Pharmacology 2002; 64:8; Malatynska E, Rapp R, Crites G. Dominant behavior measured in a competition test as a model of mania. In: International Behavioral Neuroscience Society Meeting, ed. IBNSCapri, Italy, 2002, p 26; Carpenter L L, Leon Z, Yasmin S, Price L H. Do obese depressed patients respond to topiramate? A retrospective chart review. J Affect Disord 2002; 69:251; McElroy S L, Zarate C A, Cookson J, Suppes T, Huffman R F, Greene P, Ascher J. A 52-week, open-label continuation study of lamotrigine in the treatment of bipolar depression. J Clin Psychiatry 2004; 65:204; Bonnet U. Moclobemide: therapeutic use and clinical studies. CNS Drug Rev 2003; 9:97; Danysz W, Plaznik A, Kostowski W, Malatynska E, Jarbe T U, Hiltunen A J, Archer T. Comparison of desipramine, amitriptyline, zimeldine and alaproclate in six animal models used to investigate antidepressant drugs. Pharmacol Toxicol 1988; 62:42; Knapp R J, Goldenberg R, Shuck C, Cecil A, Watkins J, Miller C, Crites G, Malatynska E. Antidepressant activity of memory-enhancing drugs in the reduction of submissive behavior model. Eur J Pharmacol 2002; 440:27; Kostowski W, Malatynska E, Plaznik A, Dyr W, Danysz W. Comparative studies on antidepressant action of alprazolam in different animal models. Pol J Pharmacol Pharm 1986; 38, 471 and Malatynska E, De Leon I, Allen D, Yamamura H I. Effects of amitriptyline on GABA-stimulated ^36Cl^− uptake in relation to a behavioral model of depression. Brain Res Bull 1995; 37:53) In the experiments described in this report Sprague-Dawley rats weighing 160 to 180 g were used. […]

dominant rats [4] = experiment: Reduction of Dominant Behavior Model (RDBM) of mania, dominant-submissive rat food competition test; type: in vivo, Sprague-Dawley rats
From the text: as §1, §2
The DSR developed by two rats competing for food uses the apparatus in FIG. 1. The methodology and equipment are described in several publications; (See: Malatynska E, Goldenberg R, Shuck L, Haque A, Zamecki P, Crites G, Schindler N, Knapp R J. Reduction of submissive behavior in rats: a test for antidepressant drug activity. Pharmacology 2002; 64:8; Malatynska E, Rapp R, Crites G. Dominant behavior measured in a competition test as a model of mania. In: International Behavioral Neuroscience Society Meeting, ed. IBNSCapri, Italy, 2002, p 26; Carpenter L L, Leon Z, Yasmin S, Price L H. Do obese depressed patients respond to topiramate? A retrospective chart review. J Affect Disord 2002; 69:251; McElroy S L, Zarate C A, Cookson J, Suppes T, Huffman R F, Greene P, Ascher J. A 52-week, open-label continuation study of lamotrigine in the treatment of bipolar depression. J Clin Psychiatry 2004; 65:204; Bonnet U. Moclobemide: therapeutic use and clinical studies. CNS Drug Rev 2003; 9:97; Danysz W, Plaznik A, Kostowski W, Malatynska E, Jarbe T U, Hiltunen A J, Archer T. Comparison of desipramine, amitriptyline, zimeldine and alaproclate in six animal models used to investigate antidepressant drugs. […]

Male CF-1 mice = experiment: Forced swimming test in mice (behavioral despair); type: in vivo; conditions: 1 h before test; for reduction in immobility: 4-minute test period
From the text: Porsolt (1977) proposed a model for screening antidepressants in mice, called the “behavioral despair” test. (See, Porsolt, R D et al. Behavioral despair in mice: A preliminary screening test for antidepressants. Arch Int Pharmacodyn Ther 229; 327-336:1977 and Porsolt, R D et al. Behavioral despair in rats: a new model sensitive to antidepressant treatments, Eur. J. Pharmacol., 47, 379-391, 1978). This test is also called the forced swim test In this test, a mouse is placed in a container of water and swims, apparently trying to escape. The animal then alternates periods of swimming and floating, i.e., remaining immobile. Antidepressants are among those drugs that reduce the periods of immobility. In the present report COMPOUND #7 was tested in the forced swimming procedure in mice to determine whether the compound had any potential antidepressant activity.
Male CF-1 mice (18-22 g) were purchased from Charles River Breeding Laboratories, Kingston, N.Y. Animals were housed in standing wire cages with free access to food and water. Experiments were initiated only after an acclimation period of at least 3 days to the animal room environment which consisted of automatically controlled illumination with a 12-hour light/dark cycle and controlled temperature and relative humidity.
COMPOUND #7 was dissolved in 30% polyethylene glycol 400 in deionized water and administered to animals by oral gavage in a volume of 0.1 ml/10 g body weight.
The method was similar to that described by Porsolt et al. (1977)1 with minor modifications (See, Porsolt R D, Bertin A, Jalfre M. Behavioral despair in mice: A preliminary screening test for antidepressants. Arch Int Pharmacodyn Ther 229; 327-336:1977)
Mice were pre-swum the day before the test for 5 minutes. On the test day, mice were dosed orally with either test compound or vehicle. One hour later each animal was placed in a glass cylinder (1000-ml beaker; height 14 cm, diameter 11.5 cm) containing water up to a height of 9 cm (water temperature at 25° C.). Following a 2-minute pretest, immobility of each mouse was recorded for a 4-minute test period. Immobility was defined as the animal making only those movements to stay afloat, especially combined with lack of movement of its hind legs. Each group consisted of 8 mice.

Male NMRI mice = experiment: Mouse tail suspension test (TST); type: in vivo
Description: The tail suspension test (TST) is an acute test which is predictive of anti-depressant activity of a test compound. (See, Steru, L. et al. Psychopharmacology, 85, 367-370, 1985)
Male NMRI mice (22-26 g; n=12 mice per dose) is given a single dose of vehicle (aqueous solution of 1 equivalent tartaric acid+0.45% NaCl+10% cyclodextrin, i.p.), imipramine (128 mg/kg, p.o. in an aqueous solution of 0.9% NaCl) or COMPOUND #7 (at 1, 3 AND 30 mg/kg, p.o.) 60 min prior to tail suspension. All substances were administered in a volume of […]. In this test, the mice are submitted to an unpleasant and inescapable situation (i.e. hanging by the tail) for 6 min. Once suspended, motor activity diminishes rapidly and the mice become immobile. A compound is considered active as an antidepressant in this model, when there is a reduction in immobility time. Viewpoint video-tracking software is utilized to record immobility time.

[5] = tested on: Male rats of Wistar (Han) strain; experiment: Behavioral despair or forced swim test in the rat; type: in vivo; conditions: 4 hours and 60 minutes before the test, 5 minute test
From the text: The behavioral despair or forced swim test (FST) in rats as in mice (see Example 2) is an acute test of anti-depressant activity. Antidepressant-like compounds are known to be active in this assay (e.g., tricyclics, MAO inhibitors, SSRIs), although activity can vary with mouse strain differences, as would be known to one of skill in the art. (See, Porsolt, R D et al. Behavioral despair in rats: a new model sensitive to antidepressant treatments, Eur. J. Pharmacol., 47, 379-391, 1978) and also (see; Porsolt, R D et al. Behavioral despair in mice: A preliminary screening test for antidepressants. Arch Int Pharmacodyn Ther 229; 327-336:1977)
The assay procedure is as follows. Male rats of Wistar (Han) strain, 185-245 g body weight supplied by Elevage Janvier, 53940 Le Genest-Saint-Isle, France were used. These animals were administered 1, 3 and 30 mg/kg of COMPOUND #7 p.o. 24 hours, 4 hours and 60 minutes before the test. Active control animals were given imipramine 64 mg/kg under the same conditions. […] Imipramine at 64 mg/kg administered under the same experimental conditions decreased the duration of immobility by 44% as compared to vehicle.

[6] = treatment of the submissive subject for 3 weeks

In the case of `NC(=O)N1c2ccccc2C=Cc2ccccc21` [carbamazepine], the “effect on competitive behavior of dominant rats” value (“effect on competitive behavior” for short) (dominant rats [1]) is given as “significantly reduced competitive behavior”.
In the case of `CNCCCN1c2ccccc2CCc2ccccc21` [desipramine], the “effect on submissive behavior” value (submissive rats [2]; [6]) is given as “reduced submissive behavior”.
For `NC(=O)OC[C@@H](O)c1ccccc1Cl` [COMPOUND #7], the “effect on submissive rat behavior (time spent on feeder)” value (submissive rats [3]; 3 mg/kg b.i.d. p.o. for 5 weeks, submissive rat treated, partner vehicle) was “did not have any effect”, the “onset of increased competitiveness of submissive rats (treatment time)” value (submissive rats [3]; 30 mg/kg b.i.d. p.o.) was 1 week and the “effect on competitiveness of submissive rat (time spent on feeder, dominance level)” value (submissive rats [3]; 30 mg/kg b.i.d. p.o. for 5 weeks, vs vehicle-treated submissive rats) was “significantly increased competitiveness”. The “onset of significant decrease of dominant rat performance (treatment time)” value (dominant rats [4]; 3 mg/kg b.i.d. p.o.) was 3 weeks, the “effect on performance of dominant rats (time spent on feeder)” value (dominant rats [4]; 3 mg/kg b.i.d. p.o. for 5 weeks, dominant rat treated, partner vehicle) was “decreased the performance of dominant rats” and the “onset of increased competitiveness of dominant rats (treatment time)” value (dominant rats [4]; 30 mg/kg b.i.d. p.o.) was 2 weeks. For the same compound, the “effect on competitiveness of dominant rats” value (dominant rats [4]; 30 mg/kg b.i.d. p.o. for 5 weeks, vs vehicle treated dominant rats) was “significantly increased the competitiveness”, the reduction in immobility (Male CF-1 mice; 1 mg/kg oral) was 25% and the reduction in immobility (Male CF-1 mice; 3 mg/kg oral) was 28%. For the same compound, the reduction in immobility (Male CF-1 mice; 10 mg/kg oral) was 43%, the “reduction in immobility (significance)” value (Male CF-1 mice; 17.3 mg/kg oral) was “not significant” and the “reduction in immobility (significance)” value (Male CF-1 mice; 30 mg/kg oral) was “not significant”. The “effect on duration of immobility” value (Male NMRI mice; 1, 3 and 30 mg/kg p.o. 60 minutes before the test) was “did not affect the duration of immobility” and the “effect on duration of immobility” value ([5]; 1, 3 and 30 mg/kg p.o. 24 hours) was “did not affect the duration of immobility”.
For `CN(C)CCCN1c2ccccc2CCc2ccccc21` [imipramine, reference compound], the “decrease of duration of immobility as compared with control” value (Male NMRI mice; 128 mg/kg p.o. 60 minutes before the test) is listed as −69%, the “decrease of duration of immobility as compared to vehicle” value ([5]; 64 mg/kg p.o. 24 hours) is listed as 44% and the “effect on submissive behavior” value (submissive rats [2]; [6]) is listed as “reduced submissive behavior”.
For `CC(N)Cc1ccccc1` (stereo not shown) [amphetamine, reference compound], the “effect on submissive behavior” value (submissive rats [3]; treatment of submissive rats, psychostimulant, unpublished observation) was “ineffective”.
In the case of `Clc1cccc(Cl)c1N=C1NCCN1` [clonidine], the “effect on competitive behavior” value (dominant rats [1]) is listed as “significantly reduced competitive behavior”.
In the case of `CN1C(=O)CN=C(c2ccccc2)c2cc(Cl)ccc21` [diazepam], the “effect on submissive behavior” value (submissive rats [2]; treatment of submissive rats, anxiolytic) is given as “ineffective”.
For `CNCCC(Oc1ccc(C(F)(F)F)cc1)c1ccccc1` (stereo not shown) [fluoxetine, reference compound], the “onset of significant effect in submissive rats (treatment time)” value (submissive rats [3]; 10 mg/kg i.p. once a day, previous experimental set) is given as 3 weeks and the “effect on submissive behavior” value (submissive rats [2]; [6]) is given as “reduced submissive behavior”.
In the case of `CCCC(CCC)C(=O)[O-].[Na+]` [sodium valproate], the “effect on competitive behavior” value (dominant rats [1]) is listed as “significantly reduced competitive behavior”.
